Molecules are shown by their SMILES.

The target in assay [1] is T1, Brainiac β1-3-N-acetylglucosaminyltransferase (Drosophila melanogaster, UniProt Q24157).
T1 construct: The full coding region of Brainiac was prepared by PCR using genomic DNA; made in house; host or cells: High Five insect cells (baculovirus vector pVL1393); microsomal fractions
T1 sequence (Q24157 1-325): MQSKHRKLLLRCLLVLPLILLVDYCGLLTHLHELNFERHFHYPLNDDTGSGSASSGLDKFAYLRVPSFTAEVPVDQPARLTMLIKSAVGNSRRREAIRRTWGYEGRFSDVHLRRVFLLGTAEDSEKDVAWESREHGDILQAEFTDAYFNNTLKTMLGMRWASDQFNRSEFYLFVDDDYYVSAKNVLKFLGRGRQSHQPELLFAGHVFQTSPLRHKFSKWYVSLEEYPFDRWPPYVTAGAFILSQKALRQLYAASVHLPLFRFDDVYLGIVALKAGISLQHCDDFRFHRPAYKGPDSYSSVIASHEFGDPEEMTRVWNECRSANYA
As to the kind of experiment: Substrate specificities of Brainiac β1-3-N-acetylglucosaminyltransferase (acceptor panel, microsomal preparations). Particulars: panel of mono- and disaccharides with aglycons and oligosaccharides. The class given is biochemical. Here is the method:
Fringe-Myc and Fringe-NNN-myc were cloned into baculovirus vector pVL1393 (Pharmingen) and expressed in High Five™ cells. Microsomal fractions were prepared by hypotonic lysis ultracentrifugation and solubilised 1:2 (vol/vol) in 20 mM Cacodylate pH 6.5, 1% Triton-CF54, 5 MM MnCl2 containing Leupeptin and Aprotinin as described previously (Amado et al., 1998). For glycosyltransferase assays, 5 μl of this suspension were added to a total of 50 μl reaction mixture containing 25 mM Cacodylate pH 6.5, 0.25% Triton-CF54, 5 mM MnCl2, 500 mM free sugar, 100 μM UDP-^14C-sugar (1280-2000 cpm/nmol). Reactions were incubated at 37° C. for 45-60 minutes, followed by Dowex-1 anion exchange chromatography and scintillation counting of 50% of the flow-through.
Brainiac-full was cloned into baculovirus vector pVL1393 (Pharmingen) and expressed in High Five cells. […] Initial analysis of activity was done with five monosaccharides and four donor sugar nucleotides as described in FIG. 5 for Fringe. Assays with the acceptors listed in Table 1 were performed as described for Fringe except no additional detergent was added. Reactions with glycolipid substrates were performed in the presence of 0.5% N-octylglucoside in 50 ul reaction volume containing 10 μg glycolipid.
In the latter case the acceptor sugar was not determined.

In assay [2] the target is T1, Brainiac β1-3-N-acetylglucosaminyltransferase. The assay is described as above. The class given is biochemical. As to conditions: microsomes of pVL-Brainiac infected High Five cells, background of irrelevant construct subtracted, donor UDP-GlcNAc.

Consider `OC[C@H]1OC(O)[C@H](O)[C@@H](O)[C@H]1O` (stereo partly drawn) [D-Gal], for which the “Acceptor for Brainiac, in words (detailed analysis)” value in assay [1] is listed as “not found to be acceptors”. In addition, the “Brainiac activity with substrate” value in assay [2] (substrate 2 mM) and in assay [2] (substrate 20 mM) was 0.00 nmol/h/mg in each case.

These data come from US20030153056A1, “Glycosyltransferase proteins” (priority 2000, published 2003).
